pIC50: −log10 of the molar value.
How the values were obtained:
[1] = molecular target: Dihydroorotate dehydrogenase (quinone), mitochondrial (Homo sapiens, UniProt Q02127); assay: Inhibition of human DHODH
MOLM-13 = assay: Antiproliferative activity against human MOLM-13 cells; assay type: functional, cell-based
[2] = Plasma protein binding in mouse assessed as unbound fraction; assay type: ADME, cell-free
[3] = Oral bioavailability in C57 mouse at 10 mg/kg; assay type: ADME, organism-based; conditions: in vivo
[4] = Metabolic stability in human liver microsomes assessed as half life; assay type: ADME, Microsome
[5] = Volume of distribution at steady state in C57 mouse at 10 mg/kg, po or 2 mg/kg, iv; assay type: ADME, organism-based; conditions: in vivo, read-out: Vdss
[6] = Metabolic stability in mouse liver microsomes assessed as half life; assay type: ADME, Microsome
[7] = Clearance in C57 mouse at 10 mg/kg, po or 2 mg/kg, iv; assay type: ADME, organism-based; conditions: in vivo
[8] = Half life in C57 mouse at 10 mg/kg, po or 2 mg/kg, iv; assay type: ADME, organism-based; conditions: in vivo
[9] = Plasma protein binding in human assessed as unbound fraction; assay type: ADME, cell-free

Sequence of Dihydroorotate dehydrogenase (quinone), mitochondrial (Q02127 whole entry): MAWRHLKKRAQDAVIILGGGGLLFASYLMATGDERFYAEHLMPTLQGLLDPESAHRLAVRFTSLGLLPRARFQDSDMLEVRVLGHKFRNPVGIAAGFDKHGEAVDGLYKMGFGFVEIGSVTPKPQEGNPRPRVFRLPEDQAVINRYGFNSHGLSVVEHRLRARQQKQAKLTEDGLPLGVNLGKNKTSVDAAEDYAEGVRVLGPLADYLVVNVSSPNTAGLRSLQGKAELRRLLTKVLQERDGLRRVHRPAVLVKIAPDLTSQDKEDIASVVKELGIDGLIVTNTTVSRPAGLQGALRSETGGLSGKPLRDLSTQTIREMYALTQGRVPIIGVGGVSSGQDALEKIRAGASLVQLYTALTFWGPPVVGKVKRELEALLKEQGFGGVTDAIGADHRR

Row | SMILES | pIC50 [1] | pIC50 (MOLM-13; Homo sapiens, MOLM-13) | half-life [4] | half-life [6] | also measured
1 | Cc1c(-c2ccc(-c3ccccc3F)cc2)nc2ccc(F)cc2c1C(=O)NC#N | 6.94 | < 5.52 | – | – | –
2 | CONC(=O)c1c(C)c(-c2ccc(-c3ccccc3F)cc2)nc2ccc(F)cc12 | 9.92 | 8.05 | > 3 h | 0.95 h | Fu [2]: 0.77%; bioavailability [3]: 108%; Vd [5]: 1.15 L/kg; clearance [7]: 5.09 mL/min/kg; half-life [8]: 2.35 h; Fu [9]: 0.55%
3 | Cc1c(-c2ccc(-c3ccccc3F)cc2)nc2ccc(F)cc2c1C(F)F | 6.80 | < 5.52 | – | – | –
4 | COC(=O)NC(=O)c1c(C)c(-c2ccc(-c3ccccc3F)cc2)nc2ccc(F)cc12 | 5.90 | 6.39 | – | – | –
5 | Cc1c(-c2ccc(-c3ccccc3F)cc2)nc2ccc(F)cc2c1C(=O)N(C)O | 8.11 | 5.29 | – | – | –
6 | Cc1c(-c2ccc(-c3ccccc3F)cc2)nc2ccc(F)cc2c1C(=O)NO | 8.85 | 7.64 | > 3 h | 0.6 h | –
7 | Cc1c(-c2ccc(-c3ccccc3F)cc2)nc2ccc(F)cc2c1C(N)=O | 7.33 | 6.89 | 2.25 h | 1.08 h | –
8 | Cc1c(-c2ccc(-c3ccccc3F)cc2)nc2ccc(F)cc2c1C(=O)NS(C)(=O)=O | 7.49 | 6.52 | – | – | –
9 | Cc1c(-c2ccc(-c3ccccc3F)cc2)nc2ccc(F)cc2c1-c1noc(=O)[nH]1 | 5.81 | < 5.52 | – | – | –
10 | Cc1c(-c2ccc(-c3ccccc3F)cc2)nc2ccc(F)cc2c1C(=O)C(F)(F)F | 7.13 | < 5.52 | – | – | –
11 | Cc1c(-c2ccc(-c3ccccc3F)cc2)nc2ccc(F)cc2c1-c1nnn[nH]1 | 6.65 | < 5.52 | – | – | –
12 | Cc1c(-c2ccc(-c3ccccc3F)cc2)nc2ccc(F)cc2c1C(O)C(F)(F)F (stereo not given) | 6.09 | 6.19 | – | – | –
13 | CCONC(=O)c1c(C)c(-c2ccc(-c3ccccc3F)cc2)nc2ccc(F)cc12 | 8.38 | 7.48 | > 3 h | 0.3 h | –
14 | Cc1c(-c2ccc(-c3ccccc3F)cc2)nc2ccc(F)cc2c1CO | 6.78 | 6.15 | – | – | –
15 | Cc1c(-c2ccc(-c3ccccc3F)cc2)nc2ccc(F)cc2c1C(=O)O [BREQUINAR] | – | – | > 3 h | > 3 h | Fu [2]: 0.73%; bioavailability [3]: 72%; Vd [5]: 0.3 L/kg; pIC50 (MOLM-13; molm-13): 7.22; clearance [7]: 0.2 mL/min/kg; Fu [9]: 0.39%

Reference: ChEMBL document CHEMBL4699538 (Bioorg Med Chem Lett, 2020)
